Results published in PubChem BioAssay (NCI).
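Cells were grown in 96-well plates and exposed to each compound for 48 hours at five concentrations; endpoints were interpolated linearly between bracketing concentrations, or set to the highest concentration if not reached. At the TGI there is no net growth.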

Tests used:
Test in all cases: NCI anticancer screen, dose series, 48 h
SNB-19 CNS = test system: SNB-19 CNS
OVCAR-8 ovarian = test system: OVCAR-8 ovarian
OVCAR-3 ovarian = test system: OVCAR-3 ovarian
A549 NSCLC = test system: A549 NSCLC
LOX IMVI melanoma = test system: LOX IMVI melanoma
NCI-H522 lung = test system: NCI-H522 lung
K-562 leukemia = test system: K-562 leukemia
HS 578T breast = test system: HS 578T breast
NCI/ADR-RES ovarian = test system: NCI/ADR-RES ovarian
NCI-H23 lung = test system: NCI-H23 lung
RPMI-8226 leukemia = test system: RPMI-8226 leukemia
MDA-MB-435 = test system: MDA-MB-435
UO-31 renal = test system: UO-31 renal
ACHN renal = test system: ACHN renal
OVCAR-4 ovarian = test system: OVCAR-4 ovarian
MOLT-4 leukemia = test system: MOLT-4 leukemia
DU-145 prostate = test system: DU-145 prostate

Measured: TGI

CC(=O)O[C@H]1[C@@H](N2CCN(C)CC2)C[C@H]2[C@@H]3CC=C4C[C@@H](N5CCCC5)CC[C@]4(C)[C@H]3CC[C@@]21C
39.4 µM: LOX IMVI melanoma
33 µM: K-562 leukemia
44.2 µM: RPMI-8226 leukemia
not listed: DU-145 prostate
> 100 µM: all other assays above

Cc1cc(C#N)c(Nc2c(C)cccc2[N+](=O)[O-])s1
82.3 µM: NCI/ADR-RES ovarian
73.6 µM: NCI-H522 lung
not listed: LOX IMVI melanoma | HS 578T breast
> 100 µM: all other assays above

COc1cc2c(cc1O)C(C)Cc1cc3c(cc1N(C)CC2)OCO3 (stereo not given)
37.8 µM: UO-31 renal
37.5 µM: OVCAR-8 ovarian
36.5 µM: MOLT-4 leukemia
8.83 µM: OVCAR-3 ovarian
74.1 µM: ACHN renal
> 87.4 µM: SNB-19 CNS
> 33.9 µM: RPMI-8226 leukemia
32.6 µM: A549 NSCLC
> 27.9 µM: K-562 leukemia
18.1 µM: LOX IMVI melanoma
4.94 µM: NCI-H522 lung
20.3 µM: NCI-H23 lung
> 65.2 µM: OVCAR-4 ovarian

CC1=NN(C(=O)Cc2ccccc2)C(=O)/C1=C\c1ccco1
not listed: HS 578T breast | NCI/ADR-RES ovarian | MDA-MB-435 | DU-145 prostate
> 100 µM: all other assays above

COc1cc(C=O)c(-c2cc3c(cc2C=O)OCO3)c(OC)c1OC
> 290 µM: SNB-19 CNS | OVCAR-8 ovarian | A549 NSCLC | LOX IMVI melanoma | K-562 leukemia | RPMI-8226 leukemia | ACHN renal | MOLT-4 leukemia
119 µM: NCI-H522 lung
153 µM: OVCAR-3 ovarian
222 µM: NCI-H23 lung

CCOC(=O)/C=C/c1ccccn1
not listed: SNB-19 CNS | OVCAR-3 ovarian | HS 578T breast | NCI/ADR-RES ovarian | MDA-MB-435 | DU-145 prostate
> 100 µM: all other assays above

N#CC(c1cc(Cl)ncn1)c1nc2ccccc2s1 (stereo not given)
4.47 µM: NCI-H522 lung
20.3 µM: SNB-19 CNS
24.2 µM: DU-145 prostate
62 µM: MDA-MB-435
22.8 µM: OVCAR-3 ovarian
91 µM: OVCAR-4 ovarian
19.5 µM: NCI-H23 lung
68.7 µM: ACHN renal
12.5 µM: OVCAR-8 ovarian
15.8 µM: LOX IMVI melanoma
15.2 µM: NCI/ADR-RES ovarian
not listed: HS 578T breast
> 100 µM: all other assays above

CN1OC2OC(=O)OC2[C@H]1[C@H]1O[C@H](c2ccccc2)OC1(C)c1cc(OC(=O)c2ccccc2)ccc1OC(=O)c1ccccc1 (stereo not given in full)
not listed: HS 578T breast | NCI/ADR-RES ovarian | MDA-MB-435 | DU-145 prostate
> 50 µM: all other assays above

CC(C)(C)NC1C2CCC(C)(C1O)C2(C)C (stereo not given)
21.6 µM: ACHN renal
not listed: NCI-H522 lung | HS 578T breast
> 100 µM: all other assays above

O=C(Nc1c(Cl)cc([N+](=O)[O-])cc1Cl)/C(=N\Nc1cccc(Cl)c1)c1c(O)c2ccccc2oc1=O
78.1 µM: UO-31 renal
not listed: LOX IMVI melanoma | HS 578T breast | NCI/ADR-RES ovarian | MDA-MB-435 | DU-145 prostate
> 100 µM: all other assays above

Cc1cc(NCCCCCCNc2cc(C)nc3ccc(Cl)cc23)c2cc(Cl)ccc2n1
45.9 µM: A549 NSCLC
66.8 µM: SNB-19 CNS
30.7 µM: NCI-H522 lung | NCI-H23 lung
39.1 µM: OVCAR-8 ovarian
34.8 µM: OVCAR-4 ovarian
28.7 µM: LOX IMVI melanoma
32 µM: OVCAR-3 ovarian
> 100 µM: RPMI-8226 leukemia | ACHN renal | MOLT-4 leukemia
62.2 µM: UO-31 renal
18.4 µM: K-562 leukemia

C[C@@H]1OC(=O)/C(=C\N(C)C)[C@H]2CC(=O)N(CCc3cn(S(=O)(=O)C(F)(F)F)c4ccccc34)C[C@H]12
not listed: OVCAR-8 ovarian | HS 578T breast | DU-145 prostate
> 100 µM: all other assays above

CCNCCNC(=O)c1ccc(Br)cc1
not listed: NCI-H522 lung | MDA-MB-435 | DU-145 prostate
> 100 µM: all other assays above

O=C(CSc1nnc(-c2ccc(N=Cc3ccc(Cl)cc3)cc2)o1)Nc1cccc(Cl)c1
not listed: OVCAR-3 ovarian | HS 578T breast | NCI/ADR-RES ovarian | MDA-MB-435 | DU-145 prostate
> 100 µM: all other assays above

S=C(Nc1ccccc1)N1N=C2c3ccccc3CC[C@H]2[C@@H]1c1ccccc1
4.12 µM: NCI-H522 lung
not listed: K-562 leukemia | HS 578T breast | NCI/ADR-RES ovarian | MDA-MB-435 | DU-145 prostate
> 100 µM: all other assays above

CC(=O)NC(CCCCNC(=O)N(C)N=O)C(=O)NCc1ccccc1 (stereo not given)
not listed: HS 578T breast | NCI/ADR-RES ovarian | MDA-MB-435 | DU-145 prostate
> 100 µM: all other assays above

O=c1[nH]c(=O)n(C2CC(O)C(CO)O2)cc1C#Cc1cc(F)cc(F)c1 (stereo not given)
not listed: HS 578T breast | NCI/ADR-RES ovarian | MDA-MB-435 | DU-145 prostate
> 100 µM: all other assays above

C[C@]12CCC(=O)C=C1CC[C@@H]1C2CC[C@]2(C)Nc3c(ncn3-c3ccc(F)cc3)CC12 (stereo not given in full)
71 µM: HS 578T breast
90.8 µM: MOLT-4 leukemia
69 µM: K-562 leukemia
55.1 µM: NCI-H522 lung
42.5 µM: MDA-MB-435
not listed: LOX IMVI melanoma | NCI/ADR-RES ovarian | RPMI-8226 leukemia
> 100 µM: all other assays above

O=C(c1ccccc1)c1c(CNCc2ccccc2)n(C(=O)c2ccccc2)c2ccccc12
65.7 µM: OVCAR-3 ovarian
65.5 µM: MOLT-4 leukemia
56.1 µM: UO-31 renal
81.8 µM: NCI-H522 lung
55.1 µM: RPMI-8226 leukemia
> 100 µM: SNB-19 CNS | OVCAR-8 ovarian | A549 NSCLC | K-562 leukemia | NCI-H23 lung | ACHN renal | OVCAR-4 ovarian

Cc1cc2[nH]c3c(C#N)c(-c4ccccc4)c(CN4CCOCC4)c(=O)n3c2cc1C
not listed: K-562 leukemia | HS 578T breast | MOLT-4 leukemia | DU-145 prostate
> 100 µM: all other assays above

NC(CCCCNC(=O)C(Cc1ccccc1)NC(=O)OCc1ccccc1)C(=O)NC(CCCCNC(=O)C(Cc1ccccc1)NC(=O)OCc1ccccc1)C(=O)NC(CCCCNC(=O)C(Cc1ccccc1)NC(=O)OCc1ccccc1)C(=O)NC(CCCCNC(=O)C(Cc1ccccc1)NC(=O)OCc1ccccc1)C(=O)NC(CCCCNC(=O)C(Cc1ccccc1)NC(=O)OCc1ccccc1)C(=O)NC(CCCCNC(=O)C(Cc1ccccc1)NC(=O)OCc1ccccc1)C(=O)O (stereo not given)
not listed: HS 578T breast | NCI/ADR-RES ovarian
> 100 µM: all other assays above

N#Cc1c2nc3ccccc3nc2n2ccc3ccccc3c12
not listed: LOX IMVI melanoma | HS 578T breast | NCI/ADR-RES ovarian | MDA-MB-435 | DU-145 prostate
> 100 µM: all other assays above

CCNc1ncnc2n[nH]nc12
not listed: HS 578T breast
> 100 µM: all other assays above

C/C(=N\Nc1nc2ccccc2o1)c1ccncn1
0.84 µM: NCI/ADR-RES ovarian
> 75.8 µM: MDA-MB-435
75.5 µM: UO-31 renal
> 47.7 µM: NCI-H23 lung
> 100 µM: SNB-19 CNS | K-562 leukemia | ACHN renal | OVCAR-4 ovarian | MOLT-4 leukemia
27.1 µM: HS 578T breast
> 32.7 µM: A549 NSCLC | NCI-H522 lung
35.7 µM: OVCAR-8 ovarian
> 37.1 µM: LOX IMVI melanoma

COc1ccc([C@@H]2CC(=O)NCCCCNCCCN2)cc1
not listed: OVCAR-3 ovarian | LOX IMVI melanoma | HS 578T breast | NCI/ADR-RES ovarian | MDA-MB-435 | DU-145 prostate
> 100 µM: all other assays above

CSc1ccc2c(cc1=O)[C@@H](NC(=O)c1ccc(F)cc1)CCc1cc(O)c(O)c(O)c1-2
not listed: HS 578T breast | NCI/ADR-RES ovarian | MDA-MB-435 | DU-145 prostate
> 100 µM: all other assays above

CCCCCCCC/C=C/CCCCCCCC1CC(O)C(=O)O1 (stereo not given)
76.7 µM: RPMI-8226 leukemia
95.7 µM: OVCAR-3 ovarian
not listed: NCI-H522 lung | HS 578T breast
> 100 µM: all other assays above

Nc1ccc(N)c2c1C(=O)c1c(N)ccc(N)c1C2=O
> 31.6 µM: LOX IMVI melanoma
> 63.6 µM: MOLT-4 leukemia
97.4 µM: OVCAR-4 ovarian
81.9 µM: OVCAR-3 ovarian
> 89.3 µM: NCI-H522 lung
not listed: HS 578T breast | NCI/ADR-RES ovarian | MDA-MB-435 | DU-145 prostate
> 100 µM: all other assays above

CCn1cnc2c(NC(C)=O)ncnc21
not listed: HS 578T breast
> 100 µM: all other assays above

COc1cc(/C=C(\C#N)c2ccccn2)cc(Br)c1O
75 µM: NCI/ADR-RES ovarian
not listed: LOX IMVI melanoma | HS 578T breast | MDA-MB-435
> 100 µM: all other assays above

CC[C@]12C=CCN3CCC4(c5cc([C@@]6(C(=O)OC)CC7CN(CCc8c6[nH]c6ccccc86)C[C@@H]6CCC[C@H]76)c(OC)cc5N(C)C4[C@](O)(C(=O)OC)C1OC(C)=O)C32 (stereo not given in full)
0.0749 µM: DU-145 prostate
4.75 µM: NCI/ADR-RES ovarian
0.0249 µM: MDA-MB-435
> 8.37 µM: ACHN renal
0.337 µM: OVCAR-3 ovarian
> 8.93 µM: OVCAR-4 ovarian
0.113 µM: NCI-H522 lung
> 7.96 µM: RPMI-8226 leukemia
6.02 µM: MOLT-4 leukemia
> 4.81 µM: OVCAR-8 ovarian
1.42 µM: NCI-H23 lung
not listed: HS 578T breast
> 10 µM: all other assays above
